Measured values taken from patent US12703851B2, “Cell culture methods” (The University of Massachusetts, priority 2019, dated 2026).
Entries after “also recorded” stand apart in the source; their conditions may differ.

Assays:
Type in all cases: cell-based, Chinese hamster
CHO-K1 cell line = assay: Fed-batch spiking test, IgG glycan profile by HPLC with Glycan Column; conditions: for impact on G1F formation: versus control group
Protocol: Industrial standard Fed-batch process: CHO-K1 cell line is cultured in corresponding media. Feed for 14 days, with 6 mM glutamine supplement on the inoculation day. The working volume is 30 mL in 125 mL shake flasks, and the inoculation cell density is 0.5 million cells/mL. The parameters for the shaking incubator are: 125 RPM, and 5% CO2. The feeding strategy is 10% corresponding feed everyday starting from day 3 to day 13.
In the standard industrial fed-batch process, cells were exposed to the inhibitors for a long period of time. This experiment mimics the therapeutic antibody production process, and spikes the inhibitors at their end-of-culture cellular concentration. ICA was confirmed as a known inhibitor and was used as a positive inhibitor control. Mixture condition excluded ICA and included AA, HICA, CMP, MSA, TRI, NAP. The process lasted for 14 days, and starting from day 6, the cell density under the inhibitor conditions were lower than the negative control batch.
IgG titer was measured by HPLC with a Protein A column. Product quality was quantified by the IgG glycan profile, which was measured by HPLC with a Glycan Column.

CHO K-1 = assay: Batch culture spiking of metabolites at end-of-culture concentration; conditions: spiked at end-of-culture concentration, 6 days batch culture
Protocol: CHO K-1 industrial standard batch process: NIH CHO-K1 cell line is cultured for 6 days, with 6 mM glutamine supplement on the inoculation day. The working volume is 30 mL in 125 mL shake flasks, and the inoculation cell density is 0.5 million cells/mL. The parameters for the shaking incubator are: 125 RPM, and 5% CO2.
Cells were exposed to the identified inhibitory metabolites of Table 1 at their end-of-culture concentration for 6 days in batch culture. […] All of the inhibitory metabolites decreased the antibody productivity (FIG. 4).

CHO-S cells = assay: Inhibitory metabolite accumulation in transiently transfected CHO-S subclones (LC-MS); parameters: dose or concentration left out as unconfirmed; conditions: 6 days
Protocol: FIG. 17A-G are graphs showing inhibitory metabolite accumulation in different subclones. Accumulation concentration of metabolites shown here: FIG. 17A, CMP; FIG. 17B, GMP; FIG. 17C, HICA, FIG. 17D, MSA, FIG. 17E, NAP, FIG. 17F, TAA; and FIG. 17G, TRI. The study was divided into […] unique subclone groups. […] A negative control was included where no plasmid transfection occurred. Each subclone was cultured for 6 days at which time cells and cell culture supernatant were collected. Cells for both the control and transfection subclones were derived from the same culture to eliminate variation in growth cycle and other culture conditions. Quantification of inhibitory metabolites accumulation was performed through LC-MS. Bars, mean±s.e.m.; n=3, *p<0.05, **p<0.01, ***p<0.001. Statistics by two-tailed t-test. LC-MS/MS method for metabolites profiling: Standards of metabolites were purchased from Sigma Aldrich (St. Louis, MO) and used for identification of wasted inhibitor metabolites. Operating parameters and samples preparation protocol were followed to a previously published protocol. Quantification of expression level of transfected gene of interest through qPCR. The expression level of seven different genes transfected into CHO-S cells were evaluated using relative quantification (RQ) compared to the calibrator. The study was divided into eight unique subclone groups. […] A negative control was included in the study where no genetic engineering work involving plasmid transfection occurred. Each subclone was cultured for 6 days. Cells for both the control and transfection subclones were derived from the same culture to eliminate variation in growth cycle and other culture conditions. […] Gene functionality study through metabolic pathway analysis. As mentioned previously, HICA is generated as the downstream metabolite from the metabolism of leucine in mammalian cells, of which cellular biochemical activities are regulated by ADH5 and BCAT1 enzymes. […] A negative control was included in the study where no genetic engineering work involving plasmid transfection occurred.

SMILES | impact on G1F formation (CHO-K1 cell line) | cell density versus control group (CHO K-1) | decrease in accumulation versus control (CHO-S cells; Got1 transfected clone) | decrease in accumulation versus control (CHO-S cells; Slc35a1 transfected clone) | decrease in accumulation versus control (CHO-S cells; Bcat1 transfected clone) | decrease in accumulation versus control (CHO-S cells; Hadhb transfected clone) | other results
O=C(O)C=C(CC(=O)O)C(=O)O [AA, aconitic acid] | higher impact on G1F formation | lower cell density than the control group |  |  |  |  | impact on G2F formation (CHO-K1 cell line; Day 14, versus control group): totally inhibits the G2F formation; also recorded: G2F was not formed
Nc1ccn([C@@H]2O[C@H](COP(=O)(O)O)[C@@H](O)[C@H]2O)c(=O)n1 [CMP, cytidine-5′-monophosphate] | higher impact on G1F formation | lower cell density than the control group | 35.68% | 50.63% |  |  | decrease in accumulation versus control (CHO-S cells; Hoga1 transfected clone): 33.59%
CC(C)CC(O)C(=O)O (stereo not drawn) [HICA, α-hydroxyisocaproic acid] | higher impact on G1F formation |  |  | 73.51% | 72.31% | 27.05% | decrease in accumulation versus control (CHO-S cells; Adh5 transfected clone): 86.13%
O=C(O)c1c[nH]c2ccccc12 [ICA, indole-3-carboxylic acid, reference compound] | higher impact on G1F formation | lower cell density than the control group |  |  |  |  | 
CC(CC(=O)O)C(=O)O (centres unmarked) [MSA, methylsuccinic acid] | higher impact on G1F formation |  |  |  |  |  | 
C[n+]1cccc(C(=O)[O-])c1 [TRI, trigonelline] |  |  | 40.43% |  | 42.96% | 35.38% | decrease in accumulation versus control (CHO-S cells; Cat transfected clone): 27.8%
